According to patent US6803195B1, “Facile detection of cancer and cancer risk based on level of coordination between alleles” (Ramot At Tel-Aviv University Ltd., priority 1999, dated 2004):

System: PHA-stimulated lymphocytes of non-cancerous individuals
Assay: FISH replication assay, lymphocytes of non-cancerous individuals grown with 5-azacytidine (Example 6)
Format: cell-based, human
Conditions: for percentage of SD cells, mean value in AZA-exposed non-cancerous samples: samples 16-30, 72 hours, mean ± standard deviation
Description: Each subject donated five ml of peripheral blood. Cell cultures of PHA-stimulated lymphocytes were set up according to standard protocol (Rooney and Czepulkowsli, 1992). Briefly, 0.5 ml of peripheral blood was introduced into a 15 ml test tube containing 5ml F-10 medium supplemented with 20% fetal calf serum, 0.2% heparin, 1% penicillin/streptomycin antibiotic solution (Biological industries, Israel) and 3% phytohemagglutinin (PHA). In addition, all the 15 samples derived from the hematological patients (samples 1-15) and 15 of the 41 samples derived from non-cancerous subjects (samples 16-30) were also grown in the presence of 10^−7M 5-azacytidine (AZA; Sigman, USA) added to the other ingredients described above.
After 72 hours at 37° C., colchicine (Sigma, USA) was added to each sample (final concentration of 5×10^−7M for one hour) followed by hypotonic treatment (0.075 M KC1 at 37° C. for 15 minutes) and four washes, each with a fresh cold (−20° C.) 3:1 solution of methanol: acetic acid. The cell suspensions were stored at −20° C. until used for FISH.
Six diverse loci were tested using directly labeled commercial probes obtained from Vysis: (i) the SNRPN probe (32-190004); (ii) the TP53 probe (32-190006); (iii) the AML1 probe (LSI 21; 32-190002); (iv) the RB1 probe (LSI 13; 32-190001); (v) the α-satellite probe specific for centromere 17 (32-130017, hereafter marked as CEN17); and (vi) the satellite III probe specific for centromere 15 (32-1300015, hereafter marked as CEN15). The SNRPN probe identifies the Prader-Willi/Angelman syndrome region on 15q11-13 and is the most well characterized imprinted region in man (Ozoelik et al 1992). The TP53 probe identifies the p53 gene mapped to […] and is a tumor suppressor gene whose deletion and/or inactivation is implicated in over 50% of all human tumors (Prokocimer et al 1998). The AML1 probe recognizes a gene mapped to chromosome 21q22, which is one of the most frequently translocated genes in human blood malignancy (Look 1997). […] It is located on chromosome 13q14, and encodes the retinoblastoma protein. Both centromere specific probes (CEN17 and CEN15) identify non-coding loci implicated with chromosomal segregation and stability and are usually used for the enumeration of chromosome 17 and 15, respectively. Also the AML1 and RB1 probes, although not identifying centromeric regions, were both approved by the FDA to replace centromere specific probes for the enumeration of chromosomes 21 and 13, respectively.
A standard protocol was followed, as recommended by Ingen Laboratories (currently Insitus Biotechnologies), with few minor changes. Probes were diluted in Ingen's DenHyb solutions D001 to 400 folds (CEN17 and CEN15) and in D003 to 100 fold (AML1; RB1) or 50 fold (TP53; SNRPN) instead of the hybridization solution supplied with the probe. Five μl of the probe solution was placed on the targeted area of the sample slides and covered with a 12 mm round silanized coverslip (Ingen laboratories, USA) at 76° C. and denatured for six minutes at that temperature. The slide-filled aluminum slide tray was then transferred into an HybBox (Ingen Laboratories, USA), covered and allowed to hybridize overnight in the box.
Each of the 15 samples derived from the noncancerous subjects (samples 16-30) grown in the presence of AZA was also analyzed with each of the six probes used.
Slides were analyzed blindly on an Olympus BH2 fluorescent microscope, using a triple band-pass filter (Chroma technology). For the replication assay (Boogs and Chinault, 1997) at least 100 cells, containing two well-defined hybridization signals were scored from each sample, for each probe and for each treatment, following one-color FISH. The structure of each signal, either singlet (S), representing a non-replicated sequence, or doublet (D), disclosing a replicated sequence, was noted FIG. 1. […]

SMILES: Nc1ncn([C@@H]2O[C@H](CO)[C@@H](O)[C@H]2O)c(=O)n1 [AZA, 5-azacytidine]
- percentage of SD cells, mean value in AZA-exposed non-cancerous samples (AML1 locus, 10^-7M AZA): 21.5±4.5%
- percentage of SD cells, mean value in AZA-exposed non-cancerous samples (CEN15 locus, 10^-7M AZA): 20.9±3.8%
- percentage of SD cells, mean value in AZA-exposed non-cancerous samples (CEN17 locus, 10^-7M AZA): 20.9±5.0%
- percentage of SD cells, mean value in AZA-exposed non-cancerous samples (RB1 locus, 10^-7M AZA): 22.3±3.9%
- percentage of SD cells in AZA-exposed non-cancerous samples, range (TP53, AML1, RB1, CEN17 and CEN15, 10^-7M AZA): 12-29%
- percentage of SD cells, mean value in AZA-exposed non-cancerous samples (TP53 locus, 10^-7M AZA): 20.4±4.4%
- combined SD frequency (mean of TP53, AML1, RB1, CEN17 and CEN15) per sample, range (non-cancerous samples exposed to AZA): 16.7-24.6%
